Reference: PubChem BioAssay AID256 (DTP/NCI, 2004)
“And” between values parts separate entries of the source, which are not always exact repeats. Equal values may be shown once. Toxic doses and inconclusive results are not listed.

Tested on: CD2F1 mice, L1210 leukemia ip, survival T/C
Assay: NCI In Vivo Anticancer Drug Screen. Data for tumor model L1210 Leukemia (intraperitoneal) in CD2F1 (CDF1) mice
Conditions: higher = longer survival
Procedure, shortened: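 Implant tumor; dose compound or vehicle; measure endpoint in both groups; report treated divided by control.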

[1] = endpoint: mean survival time, dose: 100.0 mg/kg/injection, schedule: Q01DX001 (ip), vehicle: saline
[2] = endpoint: mean survival time, dose: 100.0 mg/kg/injection, schedule: Q01DX009 (ip), vehicle: saline with Tween-80
[3] = endpoint: mean survival time, dose: 100.0 mg/kg/injection, schedule: Q04DX003 (ip), vehicle: saline with Tween-80
[4] = endpoint: mean survival time, dose: 200.0 mg/kg/injection, schedule: Q01DX001 (ip), vehicle: saline
[5] = endpoint: mean survival time, dose: 200.0 mg/kg/injection, schedule: Q01DX009 (ip), vehicle: saline with Tween-80
[6] = endpoint: mean survival time, dose: 200.0 mg/kg/injection, schedule: Q04DX003 (ip), vehicle: saline with Tween-80
[7] = endpoint: mean survival time, dose: 400.0 mg/kg/injection, schedule: Q01DX001 (ip), vehicle: saline
[8] = endpoint: mean survival time, dose: 400.0 mg/kg/injection, schedule: Q01DX009 (ip), vehicle: saline with Tween-80
[9] = endpoint: mean survival time, dose: 400.0 mg/kg/injection, schedule: Q04DX003 (ip), vehicle: saline with Tween-80
[10] = endpoint: mean survival time, dose: 25.0 mg/kg/injection, schedule: Q01DX009 (ip), vehicle: saline with Tween-80
[11] = endpoint: mean survival time, dose: 50.0 mg/kg/injection, schedule: Q01DX009 (ip), vehicle: saline with Tween-80

## C/C=C/c1cc2n(c1)C(=O)c1cc(OC3OC(C)C(NC)C(C)(O)C3O)c(C)c(O)c1NC2O (stereo not drawn)
endpoint: mean survival time, dose: 4.0 micrograms/kg/injection, schedule: Q01DX009 (ip), vehicle: saline
  T/C: 108 % of control
endpoint: mean survival time, dose: 8.0 micrograms/kg/injection, schedule: Q01DX009 (ip), vehicle: saline
  T/C: 110 % of control

## ClC(Cl)c1ccccc1C(Cl)(Cl)Cl
[1]
  T/C: 104 % of control
[2]
  T/C: 99 % of control
[3]
  T/C: 94 % of control
[4]
  T/C: 98 % of control
[5]
  T/C: 101 % of control
[6]
  T/C: 94 % of control
[7]
  T/C: 98 % of control
[8]
  T/C: 94 % of control
[9]
  T/C: 88 % of control

## COC(=O)c1ccccc1NCC(O)C(O)C(O)CO (stereo not drawn)
[1]
  T/C: 98 % of control
[4]
  T/C: 101 % of control
[7]
  T/C: 86 % of control

## CC(C)(C)C(=O)CC(=O)C(C)(C)C.CC(C)(C)C(=O)CC(=O)C(C)(C)C.CC(C)(C)C(=O)CC(=O)C(C)(C)C.[Dy]
[3]
  T/C: 97 % of control
[6]
  T/C: 94 % of control
[9]
  T/C: 94 % of control

## O=S(=O)(O)c1ccc(/C2=c3\cc/c([n-]3)=C(\c3ccc(S(=O)(=O)O)cc3)c3ccc([n-]3)/C(c3ccc(S(=O)(=O)O)cc3)=c3/cc/c([n-]3)=C(\c3ccc(S(=O)(=O)O)cc3)c3ccc2[n-]3)cc1.[Co]
endpoint: mean survival time, dose: 50.0 mg/kg/injection, schedule: Q04DX002 (ip), vehicle: saline
  T/C: 104 % of control
endpoint: mean survival time, dose: 100.0 mg/kg/injection, schedule: Q04DX002 (ip), vehicle: saline
  T/C: 101 % of control
endpoint: mean survival time, dose: 200.0 mg/kg/injection, schedule: Q04DX002 (ip), vehicle: saline
  T/C: 101 % of control

## O=NN(CCOS(=O)(=O)c1ccc([N+](=O)[O-])cc1)C(=O)NC1CCCCC1
endpoint: mean survival time, dose: 100.0 mg/kg/injection, schedule: Q01DX001 (ip), vehicle: other
  T/C: 106 % of control
endpoint: mean survival time, dose: 200.0 mg/kg/injection, schedule: Q01DX001 (ip), vehicle: other
  T/C: 153 % of control
endpoint: mean survival time, dose: 400.0 mg/kg/injection, schedule: Q01DX001 (ip), vehicle: other
  T/C: 472 % of control

## O=C(O)c1ccccc1C(=O)Nc1cccc(Cl)c1
endpoint: mean survival time, dose: 100.0 mg/kg/injection, schedule: Q04DX003 (ip), vehicle: Klucel (hydroxypropylcellulose) (HPC)
  T/C: 110 % of control
endpoint: mean survival time, dose: 200.0 mg/kg/injection, schedule: Q04DX003 (ip), vehicle: Klucel (hydroxypropylcellulose) (HPC)
  T/C: 93 % of control
endpoint: mean survival time, dose: 400.0 mg/kg/injection, schedule: Q04DX003 (ip), vehicle: Klucel (hydroxypropylcellulose) (HPC)
  T/C: 98 % of control

## Nc1nc2c(c(=O)[nH]1)N1C(=S)N(c3ccc(C(=O)NC(CCC(=O)O)C(=O)O)cc3)CC1CN2 (stereo not drawn)
endpoint: mean survival time, dose: 100.0 mg/kg/injection, schedule: Q01DX001 (ip), vehicle: sodium bicarbonate
  T/C: 104 % of control
endpoint: mean survival time, dose: 200.0 mg/kg/injection, schedule: Q01DX001 (ip), vehicle: sodium bicarbonate
  T/C: 98 % of control
endpoint: mean survival time, dose: 400.0 mg/kg/injection, schedule: Q01DX001 (ip), vehicle: sodium bicarbonate
  T/C: 102 % of control

## CC(C)(C)[Si](C)(C)OP(=O)(O[Si](C)(C)C(C)(C)C)N(CCCl)CCCl
endpoint: mean survival time, dose: 15.63 mg/kg/injection, schedule: Q01DX001 (ip), vehicle: distilled water + Tween-80
  T/C: 97 % of control
endpoint: mean survival time, dose: 31.3 mg/kg/injection, schedule: Q01DX001 (ip), vehicle: distilled water + Tween-80
  T/C: 103 % of control
endpoint: mean survival time, dose: 62.5 mg/kg/injection, schedule: Q01DX001 (ip), vehicle: distilled water + Tween-80
  T/C: 106 % of control
endpoint: mean survival time, dose: 125.0 mg/kg/injection, schedule: Q01DX001 (ip), vehicle: distilled water + Tween-80
  T/C: 105 % of control
endpoint: mean survival time, dose: 250.0 mg/kg/injection, schedule: Q01DX001 (ip), vehicle: distilled water + Tween-80
  T/C: 101 % of control
endpoint: mean survival time, dose: 500.0 mg/kg/injection, schedule: Q01DX001 (ip), vehicle: distilled water + Tween-80
  T/C: 109 % of control

## Cc1cc(O)c(C(C)C)cc1N=O
endpoint: mean survival time, dose: 100.0 mg/kg/injection, schedule: Q01DX001 (ip), vehicle: saline with Tween-80
  T/C: 96 % of control
[2]
  T/C: 94 % of control
[3]
  T/C: 103 % of control
endpoint: mean survival time, dose: 200.0 mg/kg/injection, schedule: Q01DX001 (ip), vehicle: saline with Tween-80
  T/C: 94 % of control
[5]
  T/C: 88 % of control
[6]
  T/C: 100 % of control
endpoint: mean survival time, dose: 400.0 mg/kg/injection, schedule: Q01DX001 (ip), vehicle: saline with Tween-80
  T/C: 89 % of control
[8]
  T/C: 87 % of control
[9]
  T/C: 106 % of control

## CC1=C(Br)C(=O)C(Br)=C(Br)C1=O
[10]
  T/C: 96 % of control

## O=[N+]([O-])c1ccc(S(=O)(=O)c2ccc([N+](=O)[O-])cc2)cc1
[11]
  T/C: 93 % of control
[2]
  T/C: 93 % of control
[5]
  T/C: 93 % of control

## CCC(=O)Nc1ccccc1Cl
[3]
  T/C: 103 % of control
[6]
  T/C: 100 % of control
[9]
  T/C: 100 % of control

## c1nc(Sc2ncnc3nc[nH]c23)c2[nH]cnc2n1
endpoint: mean survival time, dose: 75.0 mg/kg/injection, schedule: Q01DX009 (ip), vehicle: saline with Tween-80
  T/C: 123 % of control
endpoint: mean survival time, dose: 300.0 mg/kg/injection, schedule: Q01DX009 (ip), vehicle: saline with Tween-80
  T/C: 169 % of control

## CN(C)c1ccc(/C=C/c2nc(N)nc(N)c2[N+](=O)[O-])cc1
endpoint: mean survival time, dose: 25.0 mg/kg/injection, schedule: Q01DX009 (ip), vehicle: water
  T/C: 98 % of control
endpoint: mean survival time, dose: 50.0 mg/kg/injection, schedule: Q01DX009 (ip), vehicle: water
  T/C: 97 % of control
endpoint: mean survival time, dose: 100.0 mg/kg/injection, schedule: Q01DX009 (ip), vehicle: water
  T/C: 97 % of control
endpoint: mean survival time, dose: 200.0 mg/kg/injection, schedule: Q01DX009 (ip), vehicle: water
  T/C: 92 % of control
endpoint: mean survival time, dose: 400.0 mg/kg/injection, schedule: Q01DX009 (ip), vehicle: water
  T/C: 90 % of control

## CC(=O)Nc1cccc(Oc2ccc([N+](=O)[O-])cc2)c1
endpoint: mean survival time, dose: 100.0 mg/kg/injection, schedule: Q04DX002 (ip), vehicle: Klucel (hydroxypropylcellulose) (HPC)
  T/C: 98 % of control
endpoint: mean survival time, dose: 200.0 mg/kg/injection, schedule: Q04DX002 (ip), vehicle: Klucel (hydroxypropylcellulose) (HPC)
  T/C: 103 % of control
endpoint: mean survival time, dose: 400.0 mg/kg/injection, schedule: Q04DX002 (ip), vehicle: Klucel (hydroxypropylcellulose) (HPC)
  T/C: 98 % of control

## OC(c1ccccc1)(c1ccccc1)c1ccncc1
endpoint: mean survival time, dose: 12.5 mg/kg/injection, schedule: Q01DX009 (ip), vehicle: saline with Tween-80
  T/C: 91 % of control
[10]
  T/C: 87 % of control
[11]
  T/C: 91 % of control

## O=C(/C=C/c1ccccc1)Nc1cccc2ccccc12
endpoint: mean survival time, dose: 100.0 mg/kg/injection, schedule: Q04DX002 (ip), vehicle: saline with Tween-80
  T/C: 90 % of control
endpoint: mean survival time, dose: 200.0 mg/kg/injection, schedule: Q04DX002 (ip), vehicle: saline with Tween-80
  T/C: 105 % of control
endpoint: mean survival time, dose: 400.0 mg/kg/injection, schedule: Q04DX002 (ip), vehicle: saline with Tween-80
  T/C: 94 % of control

## O=C(O)c1cccc(C(=O)O)c1
[3]
  T/C: 95 % of control
[6]
  T/C: 102 % of control
[9]
  T/C: 102 % of control

## Cc1ccc(OCCOc2ccc(C(=O)O)cc2)cc1
endpoint: mean survival time, dose: 7.5 mg/kg/injection, schedule: Q01DX009 (ip), vehicle: Klucel (hydroxypropylcellulose) (HPC)
  T/C: 100 % of control
endpoint: mean survival time, dose: 15.0 mg/kg/injection, schedule: Q01DX009 (ip), vehicle: Klucel (hydroxypropylcellulose) (HPC)
  T/C: 98 % of control
endpoint: mean survival time, dose: 30.0 mg/kg/injection, schedule: Q01DX009 (ip), vehicle: Klucel (hydroxypropylcellulose) (HPC)
  T/C: 96 % of control

## Cc1ccc(CNc2cc(C)ccn2)cc1
[3]
  T/C: 100 % of control
[6]
  T/C: 91 % of control

## CC[C@@]1(O)C(=O)OCc2c1cc1n(c2=O)Cc2cc3c(N)cccc3nc2-1
endpoint: median survival time, dose: 0.25 mg/kg/injection, schedule: Q01DX005 (ip), vehicle: saline with Tween-80
  T/C: 168 % of control
endpoint: median survival time, dose: 0.3 mg/kg/injection, schedule: Q01DX005 (ip), vehicle: saline with Tween-80
  T/C: 150 % of control
endpoint: median survival time, dose: 0.5 mg/kg/injection, schedule: Q01DX005 (ip), vehicle: saline with Tween-80
  T/C: 182 % of control and 223 % of control
endpoint: median survival time, dose: 0.63 mg/kg/injection, schedule: Q04DX002 (ip), vehicle: saline with Tween-80
  T/C: 202 % of control
endpoint: median survival time, dose: 0.84 mg/kg/injection, schedule: Q01DX005 (ip), vehicle: saline with Tween-80
  T/C: 182 % of control
endpoint: median survival time, dose: 1.0 mg/kg/injection, schedule: Q01DX005 (ip), vehicle: saline with Tween-80
  T/C: 108 % of control
endpoint: median survival time, dose: 1.25 mg/kg/injection, schedule: Q04DX002 (ip), vehicle: saline with Tween-80
  T/C: 228 % of control
endpoint: median survival time, dose: 1.39 mg/kg/injection, schedule: Q01DX005 (ip), vehicle: saline with Tween-80
  T/C: 365 % of control
endpoint: median survival time, dose: 2.0 mg/kg/injection, schedule: Q01DX005 (ip), vehicle: saline with Tween-80
  T/C: 87 % of control
endpoint: median survival time, dose: 2.32 mg/kg/injection, schedule: Q01DX005 (ip), vehicle: saline with Tween-80
  T/C: 121 % of control
endpoint: median survival time, dose: 2.5 mg/kg/injection, schedule: Q04DX002 (ip), vehicle: saline with Tween-80
  T/C: 348 % of control and 361 % of control
endpoint: median survival time, dose: 5.0 mg/kg/injection, schedule: Q04DX002 (ip), vehicle: saline with Tween-80
  T/C: 220 % of control and 361 % of control
endpoint: median survival time, dose: 10.0 mg/kg/injection, schedule: Q04DX002 (ip), vehicle: saline with Tween-80
  T/C: 93 % of control
